Test results taken from PubChem BioAssay AID248 (DTP/NCI, 2004).
Where “and” joins values, the source holds several entries; their conditions need not be identical. Identical values can stand only once. Toxic doses and inconclusive results are not listed. No stated cut-off is given here; in the data, active means T/C of 150% or more; inactive means T/C below 125%.

Tested on: L1210 leukemia ip in BDF1 mice, survival T/C
Assay: NCI In Vivo Anticancer Drug Screen. Data for tumor model L1210 Leukemia (intraperitoneal) in B6D2F1 (BDF1) mice
Settings: endpoint: mean survival time, higher = longer survival
How it was run: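 Transplanted-tumor mice were given test agent; controls received vehicle only. Survival readings from the two groups were divided (treated over control).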

[1] = dose: 50.0 mg/kg/injection, schedule: Q01DX009 (ip), vehicle: saline with Tween-80
[2] = dose: 100.0 mg/kg/injection, schedule: Q01DX009 (ip), vehicle: saline with Tween-80
[3] = dose: 200.0 mg/kg/injection, schedule: Q01DX009 (ip), vehicle: saline with Tween-80
[4] = dose: 100.0 mg/kg/injection, schedule: Q04DX003 (ip), vehicle: saline
[5] = dose: 400.0 mg/kg/injection, schedule: Q04DX003 (ip), vehicle: saline
[6] = dose: 100.0 mg/kg/injection, schedule: Q01DX009 (ip), vehicle: Klucel (hydroxypropylcellulose) (HPC)
[7] = dose: 100.0 mg/kg/injection, schedule: Q01DX009 (ip), vehicle: saline
[8] = dose: 100.0 mg/kg/injection, schedule: Q04DX003 (ip), vehicle: Klucel (hydroxypropylcellulose) (HPC)
[9] = dose: 200.0 mg/kg/injection, schedule: Q01DX009 (ip), vehicle: Klucel (hydroxypropylcellulose) (HPC)
[10] = dose: 200.0 mg/kg/injection, schedule: Q04DX003 (ip), vehicle: Klucel (hydroxypropylcellulose) (HPC)
[11] = dose: 400.0 mg/kg/injection, schedule: Q04DX003 (ip), vehicle: Klucel (hydroxypropylcellulose) (HPC)
[12] = dose: 50.0 mg/kg/injection, schedule: Q01DX001 (ip), vehicle: saline
[13] = dose: 100.0 mg/kg/injection, schedule: Q01DX001 (ip), vehicle: carboxymethylcellulose (CMC)
[14] = dose: 200.0 mg/kg/injection, schedule: Q01DX001 (ip), vehicle: carboxymethylcellulose (CMC)
[15] = dose: 400.0 mg/kg/injection, schedule: Q01DX001 (ip), vehicle: carboxymethylcellulose (CMC)

Measured: T/C

O=C1C=CC(=O)N1CO
inactive: dose: 2.5 mg/kg/injection, schedule: Q01DX009 (ip), vehicle: saline 91 % of control | dose: 2.5 mg/kg/injection, schedule: Q04DX003 (ip), vehicle: saline 96 % of control | dose: 5.0 mg/kg/injection, schedule: Q01DX009 (ip), vehicle: saline 94 % of control | dose: 5.0 mg/kg/injection, schedule: Q04DX003 (ip), vehicle: saline 98 % of control | dose: 10.0 mg/kg/injection, schedule: Q04DX003 (ip), vehicle: saline 91 % of control

CC(=O)Oc1ccc2c(c1)C(=O)CCCC2
inactive: [1] 88 % of control | [2] 88 % of control | [3] 88 % of control

CCOC(=O)c1cnc2ccc(OC)cc2c1
inactive: dose: 50.0 mg/kg/injection, schedule: Q01DX009 (ip), vehicle: saline + alcohol 111 % of control | dose: 100.0 mg/kg/injection, schedule: Q01DX009 (ip), vehicle: saline + alcohol 93 % of control | [4] 96 % of control | dose: 200.0 mg/kg/injection, schedule: Q01DX009 (ip), vehicle: saline + alcohol 98 % of control | dose: 200.0 mg/kg/injection, schedule: Q04DX003 (ip), vehicle: saline 105 % of control | dose: 400.0 mg/kg/injection, schedule: Q01DX009 (ip), vehicle: saline + alcohol 93 % of control | [5] 94 % of control

Cc1ccc(NC(=O)c2ccccc2Cl)cc1Cl
inactive: dose: 25.0 mg/kg/injection, schedule: Q04DX004 (ip), vehicle: Klucel (hydroxypropylcellulose) (HPC) 89 % of control | dose: 50.0 mg/kg/injection, schedule: Q04DX004 (ip), vehicle: Klucel (hydroxypropylcellulose) (HPC) 98 % of control | [6] 96 % of control | [7] 110 % of control | [8] 95 % of control | [4] 120 % of control | dose: 100.0 mg/kg/injection, schedule: Q04DX004 (ip), vehicle: Klucel (hydroxypropylcellulose) (HPC) 88 % of control | dose: 135.0 mg/kg/injection, schedule: Q04DX004 (ip), vehicle: Klucel (hydroxypropylcellulose) (HPC) 96 % of control | [9] 94 % of control | dose: 200.0 mg/kg/injection, schedule: Q01DX009 (ip), vehicle: saline 102 % of control | [10] 95 % of control | dose: 400.0 mg/kg/injection, schedule: Q01DX009 (ip), vehicle: Klucel (hydroxypropylcellulose) (HPC) 98 % of control | dose: 400.0 mg/kg/injection, schedule: Q01DX009 (ip), vehicle: saline 102 % of control | [11] 96 % of control | [5] 115 % of control

CCC(C)C(CCCN1CCCCC1)(CNC(=O)CN(CC)CC)c1cccc2ccccc12 (configuration not stated)
inactive: dose: 25.0 mg/kg/injection, schedule: Q01DX009 (ip), vehicle: saline 96 % of control | dose: 50.0 mg/kg/injection, schedule: Q01DX009 (ip), vehicle: saline 100 % of control | [7] 103 % of control | [4] 103 % of control

COc1cc(Br)c(CC(=O)c2c[nH]c3ccc(Br)cc23)cc1OC
inactive: [12] 100 % of control | dose: 100.0 mg/kg/injection, schedule: Q01DX001 (ip), vehicle: saline 94 % of control | dose: 200.0 mg/kg/injection, schedule: Q01DX001 (ip), vehicle: saline 105 % of control | dose: 400.0 mg/kg/injection, schedule: Q01DX001 (ip), vehicle: saline 94 % of control

CCc1cc(C)cc(OC(=O)Nc2ccc(Cl)c(Cl)c2)c1
inactive: [2] 97 % of control | [8] 91 % of control | [3] 92 % of control | [10] 90 % of control | dose: 400.0 mg/kg/injection, schedule: Q01DX009 (ip), vehicle: saline with Tween-80 94 % of control | [11] 91 % of control

O=C1Nc2ccccc2C1=Nc1ccc(S(=O)(=O)Nc2nccs2)cc1
inactive: dose: 75.0 mg/kg/injection, schedule: Q01DX001 (ip), vehicle: saline 89 % of control | dose: 150.0 mg/kg/injection, schedule: Q01DX001 (ip), vehicle: saline 86 % of control | dose: 300.0 mg/kg/injection, schedule: Q01DX001 (ip), vehicle: saline 86 % of control

CC(=O)[O][Sn]([CH2]C1CCCCC1)([CH2]C1CCCCC1)[CH2]C1CCCCC1
inactive: dose: 6.25 mg/kg/injection, schedule: Q04DX002 (ip), vehicle: saline with Tween-80 96 % of control | dose: 12.5 mg/kg/injection, schedule: Q04DX002 (ip), vehicle: saline with Tween-80 96 % of control

Cn1c(CC(O)(C(F)(F)F)C(F)(F)F)ccc1CC(O)(C(F)(F)F)C(F)(F)F
inactive: dose: 100.0 mg/kg/injection, schedule: Q01DX001 (ip), vehicle: gum acacia 107 % of control | dose: 200.0 mg/kg/injection, schedule: Q01DX001 (ip), vehicle: gum acacia 103 % of control | dose: 400.0 mg/kg/injection, schedule: Q01DX001 (ip), vehicle: gum acacia 98 % of control

CCC1(Br)OC1=O (configuration not stated)
inactive: dose: 50.0 mg/kg/injection, schedule: Q01DX009 (ip), vehicle: acetone 100 % of control | dose: 100.0 mg/kg/injection, schedule: Q01DX009 (ip), vehicle: acetone 99 % of control | dose: 100.0 mg/kg/injection, schedule: Q04DX003 (ip), vehicle: acetone 97 % of control | dose: 200.0 mg/kg/injection, schedule: Q04DX003 (ip), vehicle: acetone 98 % of control

CCCCCCCCCCCCC1CC(=O)OC1=O (configuration not stated)
inactive: [6] 97 % of control | [8] 93 % of control | [9] 95 % of control | [10] 91 % of control

CC(=O)Nc1ccccc1C[P+](c1ccccc1)(c1ccccc1)c1ccccc1
inactive: dose: 25.0 mg/kg/injection, schedule: Q04DX003 (ip), vehicle: Klucel (hydroxypropylcellulose) (HPC) 97 % of control | dose: 50.0 mg/kg/injection, schedule: Q04DX003 (ip), vehicle: Klucel (hydroxypropylcellulose) (HPC) 98 % of control | [8] 100 % of control

Nc1c(F)c(F)c(N=Nc2ccccc2)c(F)c1F
inactive: [13] 95 % of control | [14] 96 % of control | [15] 95 % of control

Cc1ccccc1NC(N)=O
inactive: [8] 110 % of control | [10] 105 % of control | [11] 103 % of control

c1ccc2c(c1)C[n+]1ccccc1-2
inactive: dose: 75.0 mg/kg/injection, schedule: Q01DX001 (ip), vehicle: other 102 % of control

O=S=Nc1cc(Cl)c(Cl)cc1Cl
inactive: dose: 25.0 mg/kg/injection, schedule: Q04DX002 (ip), vehicle: saline 103 % of control | dose: 50.0 mg/kg/injection, schedule: Q04DX002 (ip), vehicle: saline 100 % of control | dose: 100.0 mg/kg/injection, schedule: Q04DX002 (ip), vehicle: saline 95 % of control and 109 % of control

[O-][n+]1ccccc1C(c1ccccc1)c1ccccc1
inactive: [1] 90 % of control | [2] 90 % of control | [3] 90 % of control

CCCCN(C=S)CCCC
inactive: dose: 25.0 mg/kg/injection, schedule: Q04DX002 (ip), vehicle: saline with Tween-80 98 % of control | dose: 50.0 mg/kg/injection, schedule: Q04DX002 (ip), vehicle: saline with Tween-80 95 % of control | dose: 100.0 mg/kg/injection, schedule: Q04DX002 (ip), vehicle: saline with Tween-80 102 % of control | dose: 100.0 mg/kg/injection, schedule: Q04DX003 (ip), vehicle: saline with Tween-80 92 % of control

COc1ccccc1CN1CCCN(Cc2ccccc2OC)C1c1cc(OC)c(O)c(OC)c1
inactive: [13] 98 % of control | [14] 91 % of control | [15] 96 % of control

O=c1[nH]cc(CCC(F)(F)F)c(=O)[nH]1
inactive: dose: 100.0 mg/kg/injection, schedule: Q04DX002 (ip), vehicle: sodium bicarbonate 102 % of control | dose: 200.0 mg/kg/injection, schedule: Q04DX002 (ip), vehicle: sodium bicarbonate 102 % of control

COS(=O)(=O)CCC[N+](C)(C)C
inactive: [12] 93 % of control

COc1cccc(C(=O)O)c1OC
inactive: dose: 100.0 mg/kg/injection, schedule: Q04DX003 (ip), vehicle: saline sonified 95 % of control | dose: 200.0 mg/kg/injection, schedule: Q04DX003 (ip), vehicle: saline sonified 95 % of control | dose: 400.0 mg/kg/injection, schedule: Q04DX003 (ip), vehicle: saline sonified 97 % of control

Cc1cc(C)c(C)c(NCCCS(=O)(=O)O)c1C
inactive: [8] 98 % of control | [10] 102 % of control | [11] 100 % of control
